Test results: patent publication US20030166583A1, “Dermal cytochrome P450 1A inhibitors and enhancers” (priority 2002, published 2003)
“Also recorded” adds a separate entry of the source.

Legend:
dermal CYP1A = assay: Dermal microsomal CYP1A enzymatic activity (7-ethoxyresorufin-O-deethylase), inhibition or enhancement; details: for inhibitory effect on dermal CYP1A activity, in words: at certain concentration (1, 10 or 100 μM); for enhancing effect on dermal CYP1A activity, in words: at certain concentrations (1, 10 or 100 μM)
Text: (§1) Nude mice were sacrificed by decapitation.
(§2) The precipitate containing the microsomes was obtained.

CYP1A [1] = assay: in vitro; details: nude, mouse
Text: as §1, §2

CYP1A [2] = assay: Liver microsomal CYP1A enzymatic activity, inhibition or enhancement; details: nude, mouse, liver microsomes, pH 7.8, probe 7-ethoxyresorufin
Description: (§3) Nude mice were sacrificed by decapitation. The skin and liver were immediately removed and kept in ice bath or 4° C. […] Connective tissue, blood, and fat were carefully removed from the tissue. Excess water content was removed from the homogenized tissue by tissue papers before the tissue was weighed.
(§4) The suspension of homogenized tissue in potassium chloride solution was transferred into a Teflon pestle-glass homogenizer for homogenization for six (6) times. Then, potassium chloride solution was added into the homogenized suspension to bring the volume to about four (4) times of the homogenized suspension. The diluted suspension was 5 transferred into a centrifuge tube and centrifuged at 4° C., 9000 xg, for twenty (20) minutes. The supernatant containing microsomes from skin or liver tissue and other soluble substance were removed and the volume of the supernatant was brought up to four (4) times of the weight of the tissue by adding potassium chloride solution. The diluted supernatant was transferred into a centrifuge tube and centrifuged at 4° C., 100,000 xg, for one (1) hour (Beckman L8-80M). The precipitate containing the microsomes was obtained. Potassium chloride solution was added into the precipitate to bring the volume up to four (4) times of the weight of the tissue, and the suspension was centrifuged at 4° C., 100,000 xg for one (1) hour, to obtain the washed microsomes, which were stored at −78° C. in 0.1M KH2PO4-K2HPO4 buffer (pH=7.4).
(§5) The enzymatic activity of CYP1A was determined based on the activity of 7-ethoxyresorufin-O-deethylase (i.e., for CYP1A) and 7-methoxyresorufin-O-demethylase (i.e., CYP1A2). […] Except for the blank group, the reaction was triggered by adding 0.54 μM NADPH. In the test tube (16×100 mm), the reaction was carried out for ten (10) minutes at constant temperature (37° C.) with vibration and without light Methanol 2.5 ml was added into the reaction mixture to stop the reaction. Protein precipitate was removed from the reaction mixture by centrifuging the reaction mixture at 180 xg for ten (10) minutes. The supernatant was tested for florescent intensity with 550 nm as the excitation wavelength and 585 nm the emission wavelength. The florescent intensity was compared with 0.01 μM-0.1 μM standard Rhodamine B solution to obtain the reading of the CYP1A enzyme activity.

liver CYP1A = assay: as above; details: for enhancing effect on liver CYP1A activity, in words / inhibitory effect on liver CYP1A activity, in words: at certain concentration (1, 10 or 100 μM); for liver CYP1A activity (% of control group): liver microsomes
Description: as §3, §4, §5

[3] = compound 1 μM, skin microsomes, mean of at least 3 repeats
[4] = compound 10 μM, skin microsomes, mean of at least 3 repeats
[5] = compound 100 μM, skin microsomes, mean of at least 3 repeats
[6] = pH 7.8, dermal CYP1A activity (% of control group)
[7] = pH 7.8, inhibition of dermal CYP1A activity

SMILES	inhibitory effect on dermal CYP1A activity, in words (dermal CYP1A)	enhancing effect on liver CYP1A activity, in words (liver CYP1A)	dermal CYP1A activity (% of control group) (dermal CYP1A; [3]) [%]	dermal CYP1A activity (% of control group) (dermal CYP1A; [4]) [%]	dermal CYP1A activity (% of control group) (dermal CYP1A; [5]) [%]	liver CYP1A activity (% of control group) (liver CYP1A; compound 1 μM) [%]	liver CYP1A activity (% of control group) (liver CYP1A; compound 10 μM) [%]	liver CYP1A activity (% of control group) (liver CYP1A; compound 100 μM) [%]	other results
C=C(C)C1CC=C(C)CC1 (single isomer, unassigned; (+)) [(+)-Limonene]	inhibition effects	–	–	–	–	–	–	–	enhancing effect on dermal CYP1A activity, in words (dermal CYP1A): enhancing effects; inhibition of dermal CYP1A activity (dermal CYP1A; compound 1 μM): about 51%
CC(=O)OCCCc1ccccc1 [3-Phenyl propyl acetate, 3-phenylpropyl acetate]	–	enhancing effect; also recorded: most enhancing effect	–	–	–	–	–	–	activity at 10 min, 1 µM (CYP1A [1]; pH 7.8): 28.3%; activity at 10 min, 10 µM (CYP1A [1]; pH 7.8): 89.4%; activity at 10 min, 100 µM (CYP1A [1]; pH 7.8): 85%; inhibition at 10 min, 1 µM (CYP1A [1]; pH 7.8): ~72%; activity at 10 min, 1 µM (CYP1A [2]): 151%; activity at 10 min, 10 µM (CYP1A [2]): 143%; activity at 10 min, 100 µM (CYP1A [2]): 157%; enhancing effect on liver CYP1A activity, in words (liver CYP1A; listed as 3-phenylpryl acetate): enhancing effect
Oc1cc(O)c2c(c1)O[C@H](c1ccc(O)c(O)c1)[C@@H](O)C2 [(+)-Catechin]	inhibition effects	enhancing effect	78.10	91.97	99.99	90.00	120.23	116.48	enhancing effect on dermal CYP1A activity, in words (dermal CYP1A): enhancing effects; inhibition of dermal CYP1A activity (dermal CYP1A; compound 1 μM): about 22%; inhibitory effect on liver CYP1A activity, in words (liver CYP1A): inhibitory effects
Oc1cc(O)c2c(c1)O[C@@H](c1ccc(O)c(O)c1)[C@@H](O)C2 [(+)-Epicatechin]	inhibition effects	enhancing effect	65.55	86.15	105.09	124.29	129.86	130.95	enhancing effect on dermal CYP1A activity, in words (dermal CYP1A): enhancing effects; inhibition of dermal CYP1A activity (dermal CYP1A; compound 1 μM): about 34%
Oc1cc(O)c2c(c1)O[C@H](c1ccc(O)c(O)c1)[C@H](O)C2 [(−)-Epicatechin]	inhibition effects	enhancing effect; also recorded: most enhancing effect	85.69	121.77	129.82	133.54	139.91	147.44	enhancing effect on dermal CYP1A activity, in words (dermal CYP1A): enhancing effects; also recorded: strongest enhancing effect; enhancement of dermal CYP1A activity (dermal CYP1A; compound 10 μM): 22%; enhancement of dermal CYP1A activity (dermal CYP1A; compound 100 μM): about 30%; enhancement of dermal microsomal CYP1A activity (dermal CYP1A; concentration between about 10 μM and about 100 μM): at least 20%; enhancing effect on liver CYP1A activity (liver CYP1A; compound 1 μM): about 34%
O=c1cc(-c2ccccc2)oc2cc(O)c(O)c(O)c12 [Baicalein]	inhibition effects	enhancing effect	64.73	48.84	55.82	110.67	114.18	–	inhibition of dermal CYP1A activity (dermal CYP1A; compound 10 μM): about 47%
O=C(O)[C@H]1O[C@@H](Oc2cc3oc(-c4ccccc4)cc(=O)c3c(O)c2O)[C@H](O)[C@@H](O)[C@@H]1O [Baicalin]	inhibition effects	enhancing effect	90.14	82.85	75.91	106.19	90.79	106.06	inhibition of dermal CYP1A activity (dermal CYP1A; compound 100 μM): about 24%; inhibitory effect on liver CYP1A activity, in words (liver CYP1A): inhibitory effects
C=CC(=C)CCC=C(C)C [Beta-Myrcene]	–	enhancing effect	–	–	–	–	–	–	activity at 10 min, 1 µM (CYP1A [1]; pH 7.8): 101%; activity at 10 min, 10 µM (CYP1A [1]; pH 7.8): 78.2%; activity at 10 min, 100 µM (CYP1A [1]; pH 7.8): 73.6%; inhibition at 10 min, 100 µM (CYP1A [1]; pH 7.8): ~26%; activity at 10 min, 1 µM (CYP1A [2]): 82%; activity at 10 min, 10 µM (CYP1A [2]): 98%; activity at 10 min, 100 µM (CYP1A [2]): 100%; inhibitory effect on liver CYP1A activity, in words (liver CYP1A): inhibitory effects
O=c1c(-c2ccc(O)cc2)coc2cc(O)ccc12 [Daidzein]	–	–	–	–	–	–	–	–	activity at 10 min, 1 µM (CYP1A [1]; [6]): 77.5%; activity at 10 min, 10 µM (CYP1A [1]; [6]): 71.7%; activity at 10 min, 100 µM (CYP1A [1]; [6]): 77.2%; inhibition at 10 min, 10 µM (CYP1A [1]; [7]): ~28%; activity at 10 min, 1 µM (CYP1A [2]): 109%; activity at 10 min, 10 µM (CYP1A [2]): 112%; activity at 10 min, 100 µM (CYP1A [2]): 135%
O=C(O)c1cc(O)c(O)c(O)c1 [Gallic acid]	–	–	–	–	–	–	–	–	activity at 10 min, 1 µM (CYP1A [1]; [6]): 102%; activity at 10 min, 10 µM (CYP1A [1]; [6]): 107%; activity at 10 min, 100 µM (CYP1A [1]; [6]): 88.2%; inhibition at 10 min, 100 µM (CYP1A [1]; [7]): ~12%; activity at 10 min, 10 µM (CYP1A [2]): 123%; activity at 10 min, 100 µM (CYP1A [2]): 105%
COc1ccc([C@@H]2CC(=O)c3c(O)cc(O)cc3O2)cc1O [Hesperetin]	–	–	–	–	–	–	–	–	activity at 10 min, 1 µM (CYP1A [1]; [6]): ~7%; activity at 10 min, 10 µM (CYP1A [1]; [6]): 24.6%; activity at 10 min, 100 µM (CYP1A [1]; [6]): 66%; inhibition at 10 min, 1 µM (CYP1A [1]; [7]): > 90%; dose dependence of the inhibitory effect on dermal CYP1A (dermal CYP1A): the higher the hesperetin concentration, the lower the inhibitory effect; dermal CYP1A activity (% of control group) (dermal CYP1A; nude, mouse, 10 min, 1 µM, pH 7.8): 6.89%
COc1ccc([C@@H]2CC(=O)c3c(O)cc(O[C@@H]4O[C@H](CO[C@@H]5O[C@@H](C)[C@H](O)[C@@H](O)[C@H]5O)[C@@H](O)[C@H](O)[C@H]4O)cc3O2)cc1O [Hesperidin]	inhibition effects	enhancing effect	62.61	52.72	57.75	99.65	87.38	102.94	inhibition of dermal CYP1A activity (dermal CYP1A; compound 10 μM): about 47%; inhibitory effect on liver CYP1A activity, in words (liver CYP1A): inhibitory effects
O=c1cc(-c2ccc(O)c(O)c2)oc2cc(O[C@@H]3O[C@H](CO)[C@@H](O)[C@H](O)[C@H]3O)cc(O)c12 [Luteolin-7-glucoside]	inhibition effects	enhancing effect	105.07	88.05	2.53	109.79	119.53	123.78	inhibitory effect on dermal CYP1A activity, in words (dermal CYP1A; listed as luteolin-7-glycoside): strongest inhibitory effect; also recorded: most effective inhibitors; enhancing effect on dermal CYP1A activity, in words (dermal CYP1A): enhancing effects; inhibition of dermal CYP1A activity (dermal CYP1A; compound 100 μM, 100 µM): about 97%
O=c1cc(-c2ccc(O)c(O)c2)oc2cc(O)cc(O)c12 [Luteolin]	–	–	–	–	–	–	–	–	activity at 10 min, 1 µM (CYP1A [1]; [6]): 59.1%; activity at 10 min, 10 µM (CYP1A [1]; [6]): 19.4%; activity at 10 min, 100 µM (CYP1A [1]; [6]): 10.4%; inhibition at 10 min, 100 µM (CYP1A [1]; [7]): ~90%; activity at 10 min, 1 µM (CYP1A [2]): 115%; activity at 10 min, 10 µM (CYP1A [2]): 104%; activity at 10 min, 100 µM (CYP1A [2]): 33.4%
O=C1C[C@@H](c2ccc(O)cc2)Oc2cc(O)cc(O)c21 [Narigenin]	inhibition effects	enhancing effect	29.41	34.90	17.26	116.45	107.17	41.64	inhibition of dermal CYP1A activity (dermal CYP1A; compound 100 μM): about 83%; inhibitory effect on liver CYP1A activity, in words (liver CYP1A): inhibitory effects
C[C@@H]1O[C@@H](O[C@H]2[C@H](Oc3cc(O)c4c(c3)O[C@H](c3ccc(O)cc3)CC4=O)O[C@H](CO)[C@@H](O)[C@@H]2O)[C@H](O)[C@H](O)[C@H]1O [Narigin]	inhibition effects	enhancing effect; also recorded: most enhancing effect	149.99	103.30	77.31	138.88	119.79	120.55	enhancing effect on dermal CYP1A activity, in words (dermal CYP1A): enhancing effects; also recorded: strongest enhancing effect; enhancement of dermal CYP1A activity (dermal CYP1A; compound 1 μM): about 50%; inhibition of dermal CYP1A activity (dermal CYP1A; compound 100 μM): about 23%; enhancing effect on liver CYP1A activity (liver CYP1A; compound 100 μM): about 21%
C=C[C@H]1[C@H](O[C@@H]2O[C@H](CO)[C@@H](O)[C@H](O)[C@H]2O)OC=C2C(=O)OCC[C@]21O [Swertiamarin]	–	–	–	–	–	–	–	–	activity at 10 min, 1 µM (CYP1A [1]; pH 7.8): 98.5%; activity at 10 min, 10 µM (CYP1A [1]; pH 7.8): 96.5%; activity at 10 min, 100 µM (CYP1A [1]; pH 7.8): 105%
O=C/C=C/c1ccccc1 [Trans-cinnamaldehyde]	–	–	–	–	–	–	–	–	inhibition at 10 min, 100 µM (CYP1A [1]; pH 7.8): ~80%
O=C(O)/C=C/c1ccc(O)cc1O [Umbellic acid]	–	enhancing effect	–	–	–	–	–	–	activity at 10 min, 100 µM (CYP1A [2]): 121%
COc1c(O)cc2oc(Oc3ccc(O)cc3)cc(=O)c2c1O [capillarisin, Capillarisin]	strong inhibitory effects	–	–	–	–	–	–	–	–
O=c1cc(-c2ccc(O)c(O)c2)oc2cc(O)c([C@@H]3O[C@H](CO)[C@@H](O)[C@H](O)[C@H]3O)c(O)c12 [homoorientin]	strong inhibitory effects	–	–	–	–	–	–	–	–
